Measurements taken from patent US20260256792A1, “TREATMENT OF CHRONIC SPONTANEOUS URTICARIA BY ADMINISTERING (R)-2-[3-[4-AMINO-3-(2-FLUORO-4-PHENOXY-PHENYL)PYRAZOLO[3,4-D]PYRIMIDIN-1-YL]PIPERIDINE-1-CARBONYL]-4-METHYL-4-[4-(OXETAN-3-YL)PIPERAZIN-1-YL]PENT-2-ENENITRILE” (priority 2023, published 2026).

Test system: angioedema in CSU patients
Experiment: Phase 2 CSU study: angioedema activity score over 7 days (AAS7)
Type: in vivo, human
Conditions: for Non-responder n (%), AAS7 = 0 / OR (95% CI) for rilzabrutinib vs. placebo, AAS7 = 0 / RRD (%) for rilzabrutinib vs. placebo (95% CI), AAS7 = 0 / Responder n (%), AAS7 = 0: outlier removed
Excerpt: The study comprises a 12 week, randomized, double-blind, placebo-controlled, multi-center, dose-ranging efficacy and safety phase, followed by a 40 week open label extension (OLE) phase (see FIG. 1). The study consists of three phases and an optional OLE phase. […] The weekly angioedema activity score (AAS7) was proposed as a tertiary endpoint. […] Patients were to complete the AAS using the e-diary. The e-diary was to be used once daily on the same time of each day recording of participant's answers to the angioedema activity score over 7 days (AAS7) questionnaire.

[1] = 400 mg BID, Week 12, omalizumab-naïve, angioedema at baseline
[2] = 400 mg QPM, Week 1, ITT, angioedema at baseline
[3] = 400 mg QPM, Week 1, omalizumab-naïve
[4] = 400 mg QPM, Week 1, omalizumab-naïve, angioedema at baseline
[5] = 400 mg QPM, Week 2, ITT, angioedema at baseline
[6] = 400 mg QPM, Week 2, omalizumab-naïve
[7] = 400 mg QPM, Week 2, omalizumab-naïve, angioedema at baseline
[8] = 400 mg QPM, Week 3, ITT, angioedema at baseline
[9] = 400 mg QPM, Week 3, omalizumab-naïve
[10] = 400 mg QPM, Week 3, omalizumab-naïve, angioedema at baseline
[11] = 400 mg QPM, Week 4, ITT, angioedema at baseline
[12] = 400 mg QPM, Week 4, omalizumab-naïve
[13] = 400 mg QPM, Week 4, omalizumab-naïve, angioedema at baseline

CC(C)(C=C(C#N)C(=O)N1CCC[C@@H](n2nc(-c3ccc(Oc4ccccc4)cc3F)c3c(N)ncnc32)C1)N1CCN(C2COC2)CC1 [rilzabrutinib, (R)-2-[3-[4-amino-3-(2-fluoro-4-phenoxy-phenyl)pyrazolo[3,4-d]pyrimidin-1-yl]piperidine-1-carbonyl]-4-methyl-4-[4-(oxetan-3-yl)piperazin-1-yl]pent-2-enenitrile]
AAS7 Change from baseline LS Mean (SE) [1]: −41.53 (4.39)
AAS7 Post-baseline Mean (SD) [1]: 11.73 (18.07)
Participants with AAS7 = 0, Responder n (%) [1]: 11 (42.3) n (%)
patients achieving angioedema score (AAS7) of 0 (400 mg BID, within one week of initiating treatment, omalizumab-naïve): 42.3%
AAS7 % Change difference for rilzabrutinib vs. placebo LS Mean (95% CI) [2]: −12.18 (−42.38, 18.02) %
AAS7 % Change from baseline LS Mean (SE) [2]: −32.14 (9.37) %
AAS7 Change difference for rilzabrutinib vs. placebo LS Mean (95% CI) [2]: −5.18 (−18.04, 7.67)
AAS7 Change from baseline LS Mean (SE) [2]: −19.68 (3.99)
AAS7 Post-baseline Mean (SD) [2]: 34.57 (21.50)
Non-responder n (%), AAS7 = 0 [3]: 24 (64.9) n (%)
OR (95% CI) for rilzabrutinib vs. placebo, AAS7 = 0 [3]: 1.428
RRD (%) for rilzabrutinib vs. placebo (95% CI), AAS7 = 0 [3]: 8.1 %
Responder n (%), AAS7 = 0 [3]: 13 (35.1) n (%)
AAS7 % Change difference for rilzabrutinib vs. placebo LS Mean (95% CI) [4]: −14.70 (−47.27, 17.88) %
AAS7 % Change from baseline LS Mean (SE) [4]: −31.74 (9.84) %
AAS7 = 0, OR (95% CI) for rilzabrutinib vs. placebo [4]: 3.545
AAS7 = 0, RRD (%) for rilzabrutinib vs. placebo (95% CI) [4]: 9.1 %
AAS7 Change difference for rilzabrutinib vs. placebo LS Mean (95% CI) [4]: −5.57 (−19.34, 8.21)
AAS7 Change from baseline LS Mean (SE) [4]: −19.33 (4.16)
AAS7 Post-baseline Mean (SD) [4]: 34.85 (21.86)
AAS7 % Change difference for rilzabrutinib vs. placebo LS Mean (95% CI) [5]: 4.26 (−27.23, 35.76) %
AAS7 Change from baseline LS Mean (SE) [5]: −21.54 (4.19)
AAS7 Post-baseline Mean (SD) [5]: 32.95 (23.02)
Non-responder n (%), AAS7 = 0 [6]: 24 (64.9) n (%)
OR (95% CI) for rilzabrutinib vs. placebo, AAS7 = 0 [6]: 0.875
RRD (%) for rilzabrutinib vs. placebo (95% CI), AAS7 = 0 [6]: −3.3 %
Responder n (%), AAS7 = 0 [6]: 13 (35.1) n (%)
AAS7 % Change difference for rilzabrutinib vs. placebo LS Mean (95% CI) [7]: 0.88 (−32.86, 34.63) %
AAS7 % Change from baseline LS Mean (SE) [7]: −36.33 (12.38) %
AAS7 = 0, OR (95% CI) for rilzabrutinib vs. placebo [7]: 0.514
AAS7 = 0, RRD (%) for rilzabrutinib vs. placebo (95% CI) [7]: −9.2 %
AAS7 Post-baseline Mean (SD) [7]: 33.25 (23.40)
AAS7 % Change difference for rilzabrutinib vs. placebo LS Mean (95% CI) [8]: 15.17 (−24.59, 54.94) %
AAS7 % Change from baseline LS Mean (SE) [8]: −33.35 (14.94) %
AAS7 Change difference for rilzabrutinib vs. placebo LS Mean (95% CI) [8]: 2.33 (−9.09, 13.74)
AAS7 Change from baseline LS Mean (SE) [8]: −21.82 (4.29)
AAS7 Post-baseline Mean (SD) [8]: 32.48 (20.51)
Non-responder n (%), AAS7 = 0 [9]: 25 (67.6) n (%)
OR (95% CI) for rilzabrutinib vs. placebo, AAS7 = 0 [9]: 1.041
RRD (%) for rilzabrutinib vs. placebo (95% CI), AAS7 = 0 [9]: 0.9 %
Responder n (%), AAS7 = 0 [9]: 12 (32.4) n (%)
AAS7 % Change difference for rilzabrutinib vs. placebo LS Mean (95% CI) [10]: 14.44 (−28.58, 57.46) %
AAS7 % Change from baseline LS Mean (SE) [10]: −33.23 (15.73) %
AAS7 = 0, Non-responder n (%) [10]: 23 (85.2) n (%)
AAS7 = 0, OR (95% CI) for rilzabrutinib vs. placebo [10]: 0.686
AAS7 = 0, RRD (%) for rilzabrutinib vs. placebo (95% CI) [10]: −5.0 %
AAS7 Post-baseline Mean (SD) [10]: 32.60 (20.89)
Participants with AAS7 = 0, Responder n (%) [10]: 4 (14.8) n (%)
AAS7 % Change difference for rilzabrutinib vs. placebo LS Mean (95% CI) [11]: −12.88 (−48.34, 22.58) %
AAS7 % Change from baseline LS Mean (SE) [11]: −49.47 (13.21) %
AAS7 Change difference for rilzabrutinib vs. placebo LS Mean (95% CI) [11]: −2.68 (−13.70, 8.35)
AAS7 Change from baseline LS Mean (SE) [11]: −25.28 (4.12)
AAS7 Post-baseline Mean (SD) [11]: 29.42 (20.30)
Non-responder n (%), AAS7 = 0 [12]: 23 (62.2) n (%)
OR (95% CI) for rilzabrutinib vs. placebo, AAS7 = 0 [12]: 0.874
RRD (%) for rilzabrutinib vs. placebo (95% CI), AAS7 = 0 [12]: −3.0 %
Responder n (%), AAS7 = 0 [12]: 14 (37.8) n (%)
AAS7 % Change difference for rilzabrutinib vs. placebo LS Mean (95% CI) [13]: −19.26 (−57.48, 18.97) %
AAS7 % Change from baseline LS Mean (SE) [13]: −49.19 (13.84) %
